Experimental data as given in PMC11423540, “Synthesis and biological evaluation of ortho-phenyl phenylhydroxamic acids containing phenothiazine with improved selectivity for class IIa histone deacetylases” (Journal of Enzyme Inhibition and Medicinal Chemistry, 2024).
Where two headings read alike, the source gives them in different places. One block for each molecule: values may come before it.

Tests used:
HDAC8 = target: T1, HDAC8 (Homo sapiens, UniProt Q9BY41); parameters: method as in PMID 33570940; settings: cited from earlier work
T1 sequence (Q9BY41 1-377): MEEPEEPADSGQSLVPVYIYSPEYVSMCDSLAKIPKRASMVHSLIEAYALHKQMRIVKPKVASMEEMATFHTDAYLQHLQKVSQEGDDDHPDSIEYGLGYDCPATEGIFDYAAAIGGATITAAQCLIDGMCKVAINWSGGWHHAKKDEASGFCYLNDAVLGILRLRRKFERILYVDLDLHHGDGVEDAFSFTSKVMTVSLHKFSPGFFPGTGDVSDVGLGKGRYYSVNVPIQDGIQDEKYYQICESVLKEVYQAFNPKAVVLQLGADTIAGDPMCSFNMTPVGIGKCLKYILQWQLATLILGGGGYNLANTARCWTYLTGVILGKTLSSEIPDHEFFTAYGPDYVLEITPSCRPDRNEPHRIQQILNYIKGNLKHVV

HeLa nuclear HDACs [1] = assay: HDAC inhibition assay, HeLa nuclear extract (mixture of class I HDACs 1, 2, and 3); settings: read-out: IC50 HeLa nuclear HDACs, Boc-Lys-(AMC) substrate
HeLa nuclear HDACs [2] = system: HeLa nuclear HDACs; parameters: method as in PMID 33845233; settings: introduction, earlier work; read-out: IC50 class I HDACs; cited from earlier work
SCM-1 cells = assay: Cell viability (MTT) assay, SCM-1; assay type: cell-based; settings: human gastric cancer cells, read-out: IC50 of cytotoxicity SCM-1
From the text: (§1) Human breast cancer MDA-MB-231 cells and gastric cancer SCM-1 cells were purchased from the American Type Culture Collection (Manasas, VA, USA). SCC2095 human oral cancer cells were kindly provided by Professor Susan R. Mallery (The Ohio State University). Normal human lung fibroblasts (NHLFs; CC-2512) were purchased from the Lonza (Walkersville, MD, USA). SCM-1 cells were maintained in RPMI-1640 medium (Invitrogen, Carlsbad, CA, USA); MDA-MB-231 and SCC2095 cells were maintained in DMEM/F12 (Invitrogen); and NHLFs were maintained in FGM™-2 medium (Lonza) with 2% serum, supplemented with 10% heat-inactivated foetal bovine serum (FBS; Gibco, Grand Island, NY, USA). All cells were cultured at 37 °C in a humidified incubator containing 5% CO2 and 95% relative humidity.
(§2) To assess cell viability, cells were seeded in three replicates into 96-well plates at a density of 5×10^3/well for 24 h following incubation with compounds at the indicated concentrations. Then, cell viability was assessed with 3–(4,5-dimethylthiazol-2-yl)-2,5-diphenyltetrazolium bromide (MTT) solution (0.5 mg/mL) for 4h as described previously. After removing the medium, 200 µL of DMSO was added, and then the absorbance was measured at 570 nm using a plate reader (BMG LABTECH, Germany).

MDA-MB-231 cells = assay: Cell viability (MTT) assay, MDA-MB-231; assay type: cell-based; settings: human breast cancer cells, read-out: IC50 of cytotoxicity MDA-MB-231
From the text: as §1, §2

SMILES: O=C(NO)c1ccc(CN2C(=O)c3ccccc3S2(=O)=O)cc1-c1ccccc1 [Compound 1]
IC50 (HDAC8): 70 nM

IC50 (HeLa nuclear HDACs [1]): 100 ± 20 nM
SMILES: NC(=O)c1ccc2c(c1)N(Cc1ccc(C(=O)NO)cc1)c1ccccc1S2 [LH4f, reference compound]
IC50 (HeLa nuclear HDACs [2]): 100 nM

SMILES: CC(=O)O[C@H]1C(=O)[C@@]2(C)[C@H]([C@H](OC(=O)c3ccccc3)[C@]3(O)C[C@H](OC(=O)[C@H](O)[C@@H](NC(=O)c4ccccc4)c4ccccc4)C(C)=C1C3(C)C)[C@]1(OC(C)=O)CO[C@@H]1C[C@@H]2O [Paclitaxel, reference compound]
IC50 (SCM-1 cells): 80 ± 10 nM

SMILES: CC/C(=C(\c1ccccc1)c1ccc(OCCN(C)C)cc1)c1ccccc1 [Tamoxifen, reference compound]
IC50 (MDA-MB-231 cells): 11400 ± 900 nM
